Measured values published in publication PMC5355235, “FLT3 activating mutations display differential sensitivity to multiple tyrosine kinase inhibitors” (Oncotarget, 2017).
Like-named read-outs stand apart in the source and are kept apart here.

Columns and labels:
Assay type in all cases: cell-based
[1] = system: BaF3 FLT3 D835Y mutant cells; assay: MTT growth inhibition assay, BaF3 FLT3 D835Y cells; details: Mus musculus, no IL-3, 48 h, read-out: Proliferation IC50
Description: (§1) Figure 1 Growth of AL mutants in the presence of FLT3 TKI The BaF3 AL mutants were grown in the absence of IL-3 and analyzed by treatment in increasing concentrations of FLT3 TKI for 48 hours, after which growth inhibition was assessed using the MTT assay. Means are representative of at least three independent experiments.
(§2) The cells were grown in the absence of IL3 and analyzed by treatment in increasing concentrations of FLT3 TKI for 48 hours, after which growth inhibition was assessed using the MTT assay. Each experiment was performed at least three times and representative results are shown.
(§3) Based on Trypan Blue exclusion, 2 × 10^4 viable cells were seeded in quadruplicate in a 96-well microtiter plate in the presence or absence of inhibitor for 48 h. The effect of drug activity on cell viability was measured using the 3-(4,5-Dimethylthiazol-2-yl)-2,5-diphenyltetrazolium bromide (MTT) assay according to the manufacturer's instructions (Roche Applied Science, Indianapolis, IN, USA). Following treatment, cells were incubated for 4 h in MTT followed by dissolution in solubilization buffer overnight. Absorbance was measured at 570 nm on a Bio-Rad plate reader (Hercules, CA, USA). […] Results shown are presented as means and are representative of at least three independent experiments.

[2] = system: BaF3 FLT3 D835N mutant cells; assay: MTT growth inhibition assay, BaF3 FLT3 D835N cells; details: Mus musculus, no IL-3, 48 h, read-out: Proliferation IC50
Description: as §1, §2, §3

[3] = system: BaF3 FLT3 840G+S mutant cells; assay: MTT growth inhibition assay, BaF3 FLT3 840G+S cells; details: Mus musculus, no IL-3, 48 h, read-out: Proliferation IC50
Description: as §1, §2, §3

[4] = system: BaF3 FLT3 I836T mutant cells; assay: MTT growth inhibition assay, BaF3 FLT3 I836T cells; details: Mus musculus, no IL-3, 48 h, read-out: Proliferation IC50
Description: as §1, §2, §3

[5] = system: BaF3 FLT3 D593D mutant cells; assay: MTT growth inhibition assay, BaF3 FLT3 D593D cells; details: Mus musculus, no IL-3, 48 h, read-out: Proliferation IC50
Description: as §1, §2, §3

[6] = system: BaF3 FLT3 D835L+K mutant cells; assay: MTT growth inhibition assay, BaF3 FLT3 D835L+K cells; details: Mus musculus, no IL-3, 48 h, read-out: Proliferation IC50
Description: as §1, §2, §3

[7] = system: BaF3 FLT3 I836S mutant cells; assay: MTT growth inhibition assay, BaF3 FLT3 I836S cells; details: Mus musculus, read-out: Proliferation IC50
Description: as §1, §2, §3

[8] = system: BaF3 FLT3 D835A mutant cells; assay: MTT growth inhibition assay, BaF3 FLT3 D835A cells; details: Mus musculus, read-out: Proliferation IC50
Description: as §1, §2, §3

[9] = system: BaF3 FLT3 D835G mutant cells; assay: MTT growth inhibition assay, BaF3 FLT3 D835G cells; details: Mus musculus, no IL-3, 48 h, read-out: Proliferation IC50
Description: as §1, §2, §3

[10] = system: BaF3 FLT3 I836L+D mutant cells; assay: MTT growth inhibition assay, BaF3 FLT3 I836L+D cells; details: Mus musculus, no IL-3, 48 h, read-out: Proliferation IC50
Description: as §1, §2, §3

BaF3/ITD cells = assay: MTT growth inhibition assay, BaF3 FLT3-ITD cells; details: Mus musculus, no IL-3, 48 h, read-out: Proliferation IC50
Description: as §1, §2, §3

FLT3 D835L+K = assay: FLT3 autophosphorylation, immunoprecipitation/Western blot, D835L+K; details: D835L+K mutant, concentrations of 200 nM, 1 h
Description: Activated FLT3 expression was measured by performing immunoprecipitation, SDS-PAGE and Western blotting as previously described. Specifically, 10^7 cells were washed in medium and treated with inhibitor for 1 h followed by stimulation with 25 ng/ml of FLT3 ligand for 15 minutes where indicated. Cells were washed twice with ice-cold PBS and lysed in 300 µl of NP-40 lysis buffer (150 mM NaCl, 20 mM TrisHCl (pH7.4), 10% glycerol, 1% NP-40, 10 mM EDTA, 100 mM NaF) with 2 mM Na3VO4 and protease inhibitors (Complete Tablets, Roche, Mannheim, Germany) at 4°C for 30 m. Cell lysate was harvested by centrifugation at 13,000 × g for 30 m at 4°C. FLT3 S-18 antibody was incubated with 500 µg lysate overnight at 4°C followed by immunoprecipitation with protein A-agarose beads for 2 h. Beads were washed once in Tris buffered saline with 1% Tween-20 (TBST) and twice in TBS. Samples were boiled in sodium dodecyl sulfate (SDS) sample buffer prior to separating in a 8% SDS-polyacrylamide gel (SDS-PAGE). Proteins were transferred to a polyvinyl diflouride (PVDF) membrane (Millipore, Bedford, MA, USA) and detected by 4G10 phosphotyrosine antibody and anti-FLT3 S-18 antibody. FLT3 was visualized using the Odyssey Infra Red Imaging System from Li-Cor (Lincoln, NE, USA) using AlexaFluor 680 goat anti-mouse and AlexaFluor 800 goat anti-rabbit antibodies. […]

[11] = BaF3 FLT3 I836S, no IL-3, 48 h, MTT
[12] = BaF3 FLT3 D835A, no IL-3, 48 h, MTT

SMILES	IC50 [1] [nM]	IC50 [2] [nM]	IC50 [3] [nM]	IC50 [4] [nM]	IC50 [5] [nM]	IC50 [6] [nM]	IC50 [7, 11] [nM]	IC50 [8, 12] [nM]	IC50 [9] [nM]	IC50 [10] [nM]	IC50 (BaF3/ITD cells) [nM]	Inhibition of FLT3 phosphorylation (FLT3 D835L+K)	IC50 ([7]; BaF3, 48 h) [nM]	IC50 ([8]; BaF3, 48 h) [nM]
Cc1cc2ncc(-c3ccccc3)nc2cc1C [AG1295]	> 3000	411	500	> 3000	> 3000	> 3000	> 3000	1970	423	> 3000	298			
CC1(COc2ccc3c(c2)ncn3-c2ccc3cccc(N4CCC(N)CC4)c3n2)COC1 [Crenolanib]	58	80	83	> 1000	70	> 1000	> 1000	78.1	110	50	57	significant autophosphorylation still observable		
Cc1ccc(C(=O)Nc2ccc(CN3CCN(C)CC3)c(C(F)(F)F)c2)cc1C#Cc1cnc2cccnn12 [Ponatinib]	92	< 1	< 1	> 1000	10.7	> 1000			< 1	< 1	< 1	significant autophosphorylation still observable	> 1000	148
